Source: PMC11588130 (Proceedings of the National Academy of Sciences of the …, 2024)
pIC50: −log10 of the molar value.

Target: T1, human FXR (cotransfected with RXR) (Homo sapiens, UniProt Q96RI1)
T1 sequence (Q96RI1 1-486): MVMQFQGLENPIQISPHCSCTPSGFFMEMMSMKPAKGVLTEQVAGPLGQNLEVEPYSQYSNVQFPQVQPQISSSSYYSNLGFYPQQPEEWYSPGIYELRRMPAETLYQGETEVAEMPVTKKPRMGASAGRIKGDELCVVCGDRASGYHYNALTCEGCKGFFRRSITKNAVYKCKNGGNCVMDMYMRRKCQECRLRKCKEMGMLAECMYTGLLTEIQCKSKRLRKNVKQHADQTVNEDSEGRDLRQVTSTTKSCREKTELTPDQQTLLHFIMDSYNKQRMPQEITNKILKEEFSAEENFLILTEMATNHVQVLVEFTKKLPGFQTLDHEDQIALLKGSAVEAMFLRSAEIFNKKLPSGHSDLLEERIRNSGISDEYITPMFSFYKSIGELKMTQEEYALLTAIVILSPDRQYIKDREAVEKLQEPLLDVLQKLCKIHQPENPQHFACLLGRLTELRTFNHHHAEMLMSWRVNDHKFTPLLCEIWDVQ
T1 sequence (P19793 1-462 partner): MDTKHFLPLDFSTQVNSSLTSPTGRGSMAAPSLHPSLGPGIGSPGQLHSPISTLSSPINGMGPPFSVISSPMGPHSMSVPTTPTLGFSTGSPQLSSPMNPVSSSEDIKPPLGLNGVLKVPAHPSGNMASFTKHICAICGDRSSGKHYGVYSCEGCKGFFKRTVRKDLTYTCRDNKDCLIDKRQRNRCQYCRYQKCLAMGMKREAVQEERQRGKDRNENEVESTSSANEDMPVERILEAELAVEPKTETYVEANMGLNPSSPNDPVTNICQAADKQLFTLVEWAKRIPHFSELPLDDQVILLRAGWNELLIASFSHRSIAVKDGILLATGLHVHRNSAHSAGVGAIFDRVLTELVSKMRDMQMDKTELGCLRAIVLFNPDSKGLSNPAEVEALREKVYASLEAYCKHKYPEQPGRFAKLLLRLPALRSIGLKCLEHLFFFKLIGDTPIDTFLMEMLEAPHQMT
Experiment: FXRE-luciferase reporter in HEK293
Type: cell-based

- pIC50: 4.86
SMILES: C[C@H](CCC(=O)O)[C@H]1CC[C@H]2[C@@H]3C(=O)C[C@@H]4C[C@H](O)CC[C@]4(C)[C@H]3C[C@H](O)[C@]12C [7-oxo-DCA]
